One compound from patent US11339111B2, “Polyketide compound and derivatives thereof for use in the prevention and treatment of a neurological disorder” (SOCIETE DES PRODUITS NESTLE S.A., priority 2017, dated 2022) can be followed below.

pEC50, pIC50: −log10 of the molar value. Read-outs that look alike come from different tables or passages of the source.

Test [1] relates to human iPSc derived into cardiomyocyte. Nature of the test: Toxicity - ATP content (CellTiter-Glo). The class given is cell-based. To be noted: ATP content after 24 hours. The method, then: iCell Cardiomyocytes were seeded in 384-well plates. Eight days later cells were treated for 24 hours with compounds. Cell viability was determined by the quantification of intracellular ATP after cell lysis. ATP was used as an indicator of metabolically active cells. ATP was measured using a luminescent cell viability assay (CellTiter-Glo®; […]). Luminescence was measured after 20 min in a Bioteck Synergie Neo multimode reader.
Toxicity of the unsaturated polyketide/macrocyclic lactone compounds were evaluated in human IPS cell derived cardiomyocytes by measuring total ATP in cell lysates.
Dose response of compounds on human iPSc derived into cardiomyocyte with evaluation of the ATP level using cell titer glow. Results were normalized between untreated cells (100%) and positive control (0%).
The unsaturated polyketide/macrocyclic lactone compound mentioned throughout the Examples section is proposed to have the structure corresponding to Compound A as described herein. […]
Y-axis: relative fluorescence unit in percentage, X-axis: logarithm concentration of the compound in mg/ml for fraction and molar for pure compound. […]
Background: ATP-based viability assays read luminescence as a measure of living cells.

Test [2] deals with human iPSc derived into astrocytes. Nature of the test: Lactate release dose response in human iPSc derived astrocytes. It is filed as cell-based. To be noted: 2 hours treatment. The procedure: Dose response curves were established for compounds identified in the screen to stimulate lactate secretion. The EC50 values for the stimulation of lactate secretion were determined using primary human IPS cell derived astrocytes.
Differentiated human iPSCs (iCell astrocytes, and iCell cardiomyocytes) were obtained from Cellular Dynamics International (CDI, Madison, Wis., USA). iCell astrocytes were cultured in DMEM supplemented with 10% fetal calf serum and N2 complement. iCell cardiomyocytes were maintained in a medium supplied by CDI. Cell cultures were kept in a humidified atmosphere (5% CO2) at 37° C.
Dose response of compounds on lactate release from human iPSc derived into astrocyte fitted with a log (agonist) vs response variable slope to extract efficacy (EC50). Mean±SEM in duplicate.
The unsaturated polyketide/macrocyclic lactone compound mentioned throughout the Examples section is proposed to have the structure corresponding to Compound A as described herein. The toxicity expressed in log IC50 (ATP content after 24 hours compound treatment on human iPSc derived into cardiomyocyte) was compared against the lactate release in log EC50 (lactate secretion after 2 hours compound treatment in human iPSc derived into astrocytes).
Y-axis: relative fluorescence unit, X-axis: logarithm concentration of the compound in mg/ml for fraction and molar for pure compound. […]

Broadly, the pIC50 is the negative decadic logarithm of the IC50, by convention in mol/L. As usually defined, the IC50 is the point on the concentration scale where inhibition reaches its midpoint. Broadly, the pEC50 is −log10 of the EC50, conventionally taken in molar units. Regarding `C/C1=C\C(C)C(=O)CC(O)/C(C)=C/C(C)CC(C)CCC(C(C)C(=O)O)OC(=O)C(C)C1` (stereo not shown), in test [1] (pure compound (molar), read-out: Cardiomyocytes Toxicity IC50), the pIC50 is under 4.00. Further, in test [1] (pure compound, log of molar concentration, read-out: Cardiomyocytes Toxicity log IC50 (converted)), the IC50 was over 100 µM. Moreover, the pEC50 in test [2] (pure compound (head: mg/ml or M; molar for pure compound), read-out: Astrocytes Lactate release EC50) was 5.80. Also, the EC50 in test [2] (pure compound, log of molar concentration, read-out: Astrocytes Lactate release logEC50 (converted)) is 2 µM.
